# Results as given in US5264441A, “Disubstituted ureas and thioureas derivatives” (Farmitalia Carlo Erba S.r.l., priority 1991, dated 1993).
# Assays:
# [1] = target: T1, acyl CoA:cholesterol acyltransferase (ACAT-EC 2.3.1.26) (Oryctolagus cuniculus, UniProt A0A5F9CPP4); test: Inhibition of ACAT activity in microsomal preparations from atherosclerotic rabbit thoracic aorta; type: biochemical; details: microsomes from atherosclerotic rabbit thoracic aorta; read-out: IC50 values for the inhibition activity in microsomes from atherosclerotic rabbit thoracic aortae
# T1 construct: microsomal preparations from atherosclerotic rabbit thoracic aorta; from tissue; host or cells: microsomes of atherosclerotic rabbit thoracic aorta
# T1 sequence (A0A5F9CPP4 1-555): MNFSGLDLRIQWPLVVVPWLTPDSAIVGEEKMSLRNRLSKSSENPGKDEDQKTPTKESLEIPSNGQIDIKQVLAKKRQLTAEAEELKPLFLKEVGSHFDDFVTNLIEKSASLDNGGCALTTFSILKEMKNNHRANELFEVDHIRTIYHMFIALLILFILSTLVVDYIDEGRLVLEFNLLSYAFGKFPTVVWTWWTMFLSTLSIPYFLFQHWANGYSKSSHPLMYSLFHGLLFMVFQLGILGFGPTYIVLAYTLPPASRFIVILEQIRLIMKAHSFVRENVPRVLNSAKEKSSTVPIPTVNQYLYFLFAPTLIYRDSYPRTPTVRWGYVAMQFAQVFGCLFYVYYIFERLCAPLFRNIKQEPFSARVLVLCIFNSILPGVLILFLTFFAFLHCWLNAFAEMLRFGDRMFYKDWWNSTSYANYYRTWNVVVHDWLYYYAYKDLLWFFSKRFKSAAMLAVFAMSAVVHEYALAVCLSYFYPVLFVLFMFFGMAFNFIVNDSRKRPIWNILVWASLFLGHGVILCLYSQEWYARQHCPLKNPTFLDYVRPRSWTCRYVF
# [2] = Hypolipidaemic activity in Sprague-Dawley rats fed a 1.5% cholesterol-enriched diet for a week; type: in vivo; details: for Blood Total Cholesterol, Treating, Mean ± SE / Blood Total Cholesterol, % Change: 1 mg/kg/day, rats fed […] cholesterol-enriched diet for a week; for Blood Total Cholesterol, Treating, Mean ± SE: n = 9, * p ≤ 0.01 (Dunnett's test); for Blood Total Cholesterol, % Change: treating vs control
# Experimental: Moreover, the compounds of the invention are useful as antidyslipidaemic agents, indeed they show a high activity in lowering total serum cholesterol and triglycerides. […] Table II exemplifies the results obtained by testing the hypolipidaemic activity of a representative group of compounds of the invention administered at the dose of 1 mg/kg/day to Sprague-Dawley rats fed 1.5% cholesterol-enriched diet for a week.
# Hypocholesterolaemic activity of FCE compounds given at
# 1 mg/kg/day to rats fed 1.5% cholesterol-enriched diet
# [3] = as above; type: in vivo; details: Rattus norvegicus, 168 h, 1.5% cholesterol-enriched chow for a week, compound added to the diet
# [4] = Liver cholesterol accumulation in albino mice fed a 1.5% cholesterol-enriched diet for seven hours; type: in vivo; details: acute oral dose of 10 mg/kg
# [5] = Hypolipidaemic effect in New Zealand White rabbits fed a 1% cholesterol-enriched diet for 30 days; type: in vivo; details: compound added to the diet; for ED50: Oryctolagus cuniculus, 720 h
# [6] = liver, read-out: ED50 for the cholesterol lowering effect in liver
# [7] = plasma, read-out: ED50 for the cholesterol lowering effect in plasma
SMILES,IC50 [1],"Blood Total Cholesterol, Treating, Mean ± SE [2]","Blood Total Cholesterol, % Change [2]",other results
"CC(C)c1cccc(C(C)C)c1NC(=O)NCC1(C2CCCCC2)SCCS1 [FCE 27612, N-[2,6-bis(1-methylethyl)phenyl]-N'-(2-cyclohexyl-1,3-dithiolan-2-yl)methylurea]",9.5 nM,59 ± 7 mg/dL,-72%,–
"CC(C)c1cccc(C(C)C)c1NC(=O)NCC1(C2CCCCC2)OCC(C)(C)CO1 [FCE 27356, N-[2,6-bis(1-methylethyl)phenyl]-N'-(2-cyclohexyl-5,5-dimethyl-1,3-dioxan-2-yl)methylurea]",6.5 nM,–,–,–
"CC(C)c1cccc(C(C)C)c1NC(=O)NCC1(c2ccccc2)OC(C)C(C)O1 (stereo not drawn) [FCE 27050, N-[2,6-bis(1-methylethyl)phenyl]-N'-[(2RS,4RS,5RS)-4,5-dimethyl-2-phenyldioxolan-2-yl]methylurea]",–,62 ± 5 mg/dL,-60%,"ED50 [3, 6]: 0.51 mg/kg; ED50 [3, 7]: 0.83 mg/kg; accumulation of cholesterol in the liver [4]: prevented in a significative fashion the accumulation of cholesterol in the liver; ED50 [5, 6]: 0.16 mg/kg; ED50 [5, 7]: 0.19 mg/kg; accumulation of cholesterol in the liver [5]: prevented the accumulation of cholesterol in the liver; hypolipidaemic effect [5]: potent hypolipidaemic effect; hypolipidaemic effect ([2]; Sprague-Dawley rats, […] cholesterol-enriched chow for a week, compound added to the diet): remarkable hypolipidaemic effect"
"CC(C)c1cccc(C(C)C)c1NC(=O)NCC1(c2ccccc2)O[C@H](C)[C@@H](C)O1 [FCE 27529, N-[2,6-bis(1-methylethyl)phenyl]-N'-[(4R,5R)-4,5-dimethyl-2-phenyldioxolan-2-yl]methylurea]",–,75 ± 4 mg/dL,-62%,–
"CCOC(CNC(=O)Nc1c(C(C)C)cccc1C(C)C)(OCC)c1ccccc1 [FCE 27020, N-[2,6-bis(1-methylethyl)phenyl]-N'-(2,2-diethoxy-2-phenyl) ethylurea]",7.47 nM,–,–,–
"CC(C)c1cccc(C(C)C)c1NC(=O)NCC1(c2ccc(N(C)C)cc2)OCC(C)(C)CO1 [FCE 27607, N-[2,6-bis(1-methylethyl)phenyl]-N'-[2-(4-dimethylaminophenyl)-5,5-dimethyl-1,3-dioxan-2-yl]methylurea]",–,110 ± 8 mg/dL,-48%,–
"CC(C)c1cccc(C(C)C)c1NC(=O)NCC1(C2CCCCC2)O[C@@H](C)[C@H](C)O1 [FCE 27480, N-[2,6-bis(1-methylethyl)phenyl]-N'-[(4S, 5S)-2-cyclohexyl-4,5-dimethyldioxolan-2-yl]methylurea]",–,85 ± 9 mg/dL,-46%,–
